# In patent publication US20220378744A1, “COMPOUNDS FOR TREATING PROLIFERATOR-ACTIVATED RECEPTORS (PPAR) MEDIATED DISEASES OR CONDITIONS” (MEDIPURE PHARMACEUTICALS INC., priority 2021, published 2022):
# Assays:
# [1] = system: IMQ-induced psoriasis in BALB/c mice; experiment: IMQ-induced psoriasis model in BALB/c mice, topical creams, PASI score; type: in vivo
# Method: The animal experiment is conducted in accordance with the Guidelines for the Institutional Animal Care and Use Committee. Both male and female BALB/c mice from Rodenta Bioserve, India, at 7-8 weeks of age and 20-25 gram of body weight are housed in a laboratory environment with constant temperature (24.0±1.0° C.) and relative humidity (45.0-55.0%) on a 12 h light/dark cycles. These animals are provided free access to unlimited amounts of food and water during the entire experiment. The animals are divided into 12 groups of 8 mice each and shaved on the back on day 0 for an area of 2×2 cm . Human-like psoriasis in mice is induced by topical application of 5% Imiquimod (IMQ) procured from AK Scientific, USA, and formulated in the base cream at desired percentages in-house, in shaved area and right ear (0.5×0.5 cm). […] Vehicle, clobetasol propionate (CP, Sigma. 0.05% w/w; positive control), test creams, and CBD (Ilesol Pharmaceuticals), respectively, is applied topically on both the shaved back (80 mg cream) and the right ear (20 mg cream) of mice, once daily from day 10 to day 16. The study ends at day 17. At stated time points the severity of psoriasis is evaluated using the PASI score (Psoriasis Area Severity Index: sum of erythema, scaling and thickening, scored independently from 0 to 4 for each mouse; max PASI score=12). Tissue and blood samples are collected for histopathology, biochemistry and immunoassay from each animal at various points.
# [2] = system: LPS-stimulated HaCaT cells; experiment: Anti-inflammatory effect, LPS-stimulated HaCaT cell model (IL-6, IL-8 ELISA); type: cell-based, human; settings: LPS 20 μg/mL, 24 h
# Method: (§1) Three in vitro models based on HaCaT cell culture were tested. HaCaT cells were maintained as described above in DMEM high glucose (4.5g/L) medium supplemented with 10% FBS and 1% (v/v) penicillin/streptomycin solution (Invitrogen, Thermo Fisher) and kept in an incubator at 37° C. with 5% CO2. For experiments, the cells were seeded at 5×10^4 cells/well in 1 mL of medium to a 24-well culture plate (Nunc, Thermo Fisher) and incubated overnight.
# (§2) (1) For the imiquimod (IMQ)-stimulated HaCaT model, IMQ (Alfa Aesar) at 50 μM final concentration was used in the experiments; (2) for TNFα/IL-17A-stimulated-HaCaT model, 2 ng/mL of each cytokine (R&D Systems) was used; and (3) for the lipopolysaccharide (LPS, Sigma) simulated HaCaT cell model, 20 μg/mL LPS was used. For drug chemical treatment the old medium in the culture plates described above was discarded and the corresponding stimulant (IMQ, TNFα/IL-17A, or LPS) with or without test chemicals in 0.5 mL fresh medium was added to each cell well. There were duplicate wells for each treatment. The plate was incubated for another 24 h and the supernatant was collected for cytokine analysis, namely IL-6 and IL-8, using the corresponding ELISA kits (Thermo Fisher). The experiments were repeated independently to confirm the observation.
# [3] = system: IMQ-stimulated HaCaT cells; experiment: Anti-inflammatory effect, IMQ-stimulated HaCaT cell model (IL-6, IL-8 ELISA); type: cell-based, human; settings: IMQ 50 μM, 24 h, vs control
# Method: as §1
# as §2, with “Fisher).” for “Fisher). The experiments were repeated independently to confirm the observation.”
# human PPARα (NR1C1) = biological target: T1, human PPARα (NR1C1) (Homo sapiens, UniProt Q07869); experiment: Cell-based human PPARα transactivation (nuclear receptor reporter) assay; settings: for PPARα transactivation: concentration at which (or starting at which) active: luciferase reporter cells, 24 h treatment, FIG. 1; for activating PPARα: at 10 μM
# T1 sequence (Q07869 1-468): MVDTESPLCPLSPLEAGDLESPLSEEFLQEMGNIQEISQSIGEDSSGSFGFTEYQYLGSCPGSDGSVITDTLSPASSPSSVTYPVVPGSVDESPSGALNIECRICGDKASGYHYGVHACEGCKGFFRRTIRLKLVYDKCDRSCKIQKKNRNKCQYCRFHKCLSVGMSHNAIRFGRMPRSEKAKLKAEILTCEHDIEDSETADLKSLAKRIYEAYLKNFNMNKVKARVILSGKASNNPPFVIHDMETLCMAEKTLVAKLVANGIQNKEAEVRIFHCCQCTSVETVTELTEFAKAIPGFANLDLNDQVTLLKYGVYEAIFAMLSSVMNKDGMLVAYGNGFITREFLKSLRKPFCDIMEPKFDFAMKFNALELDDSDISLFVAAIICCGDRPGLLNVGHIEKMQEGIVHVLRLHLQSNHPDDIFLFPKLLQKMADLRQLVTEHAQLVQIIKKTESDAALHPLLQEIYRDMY
# Method: (§3) The assay was performed using cell-based human PPAR nuclear receptor reporter assay kits (NR1C1 for PPARα; NR1C2 for PPARδ/β, and NR1C3 for PPARγ, Indigo Biosciences) by following the manufacturer's instruction. In brief, PPAR reporter cells were added to CRM medium (Indigo Biosciences), seeded into wells of a 96-well culture plate and incubated for 5 hours in a cell culture incubator at 37° C. with 5% CO2. The medium was then removed, and the cells were treated with test compounds at different concentrations in CSM medium (Indigo Biosciences) for 24 h inside the incubator. […] DMSO (Sigma) at 0.1% (v/v) was used as negative baseline control (C). Each treatment was tested in duplicate wells. At the end point of the experiments, the treatment medium was discarded and Luciferase Detection Reagent (Indigo Biosciences) was added. Following a 10-minute rest period, the intensity of light emission (in units of “Relative Light Units; RLU”) from each assay well was quantified using a plate-reading luminometer (Synergy H1 plate reader, BioTek). In addition, live cell multiplex assay (Indigo Biosciences) was combined with the activation assays to detect potential cytotoxic effect, if any, of the test chemicals to normalize the signals as per manufacturer's instruction.
# human PPARγ (NR1C3) = biological target: T2, human PPARγ (NR1C3) (Homo sapiens, UniProt P37231); experiment: Cell-based human PPARγ transactivation (nuclear receptor reporter) assay; settings: for activating PPARγ: at 1 μM
# T2 sequence (P37231 1-505): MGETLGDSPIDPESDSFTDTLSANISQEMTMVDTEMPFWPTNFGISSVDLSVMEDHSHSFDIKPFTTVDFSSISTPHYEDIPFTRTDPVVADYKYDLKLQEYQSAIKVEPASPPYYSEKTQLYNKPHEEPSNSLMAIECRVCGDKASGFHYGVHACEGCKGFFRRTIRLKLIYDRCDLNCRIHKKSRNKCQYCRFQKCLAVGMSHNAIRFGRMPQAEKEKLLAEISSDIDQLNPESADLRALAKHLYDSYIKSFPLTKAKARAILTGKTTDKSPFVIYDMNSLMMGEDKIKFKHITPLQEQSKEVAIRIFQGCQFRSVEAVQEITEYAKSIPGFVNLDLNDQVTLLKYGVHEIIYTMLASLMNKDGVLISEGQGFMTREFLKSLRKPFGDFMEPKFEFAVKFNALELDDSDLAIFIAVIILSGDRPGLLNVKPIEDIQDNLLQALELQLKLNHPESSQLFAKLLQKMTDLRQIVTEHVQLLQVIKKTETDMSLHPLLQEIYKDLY
# Method: as §3
Compound,PPARα transactivation: concentration at which (or starting at which) active (human PPARα (NR1C1)),activating PPARγ (human PPARγ (NR1C3)),activating PPARα (human PPARα (NR1C1)),other results
"CCCc1cc(C(=O)c2ccc(-c3ccccc3)cc2)ccc1OCCCOc1ccc2c(cnn2CC(=O)O)c1 [MP-151, 2-(5-(3-(4-([1,1′-biphenyl]-4-carbonyl)-2-propylphenoxy)propoxy)-1H-indazol-1-yl)acetic acid]",5 µM,,,"tolerability in mice ([1]; topical, seven-day consecutive treatment, even at 10% creams): well tolerated; visual damage on the skin ([1]; topical, seven-day consecutive treatment, up to 10% creams): No visual damage; reduction of IL-8 production compared with rosiglitazone and fenofibrate ([2]; 25 μM): more active; production of IL-6 ([2]; compound at 25 uM): reduced; production of IL-6 ([3]; compound at 2.5 μM): significantly inhibited; production of IL-6 ([3]; compound at 25 μM): significantly inhibited"
"CCCc1cc(C(=O)c2ccc(F)cc2)ccc1OCCOc1ccc2c(cnn2C(OCC)C(=O)OCC)c1 (stereo not drawn) [KV-163A, ethyl 2-ethoxy-2-(5-(2-(4-(4-fluorobenzoyl)-2-propylphenoxy)ethoxy)-1H-indazol-1-yl)acetate]",,highly effective,not effective,
"Cc1nc(-c2ccc(C(F)(F)F)cc2)sc1C(=O)NCc1ccc(OC(C)(C)C(=O)O)cc1 [GW590375, reference compound]",0.001 µM,,,
"CCCc1cc(C(=O)c2ccc(F)cc2)ccc1OCCOc1ccc2c(cnn2C(OCC)C(=O)O)c1 (stereo not drawn) [KV-192, 2-ethoxy-2-(5-(2-(4-(4-fluorobenzoyl)-2-propylphenoxy)ethoxy)-1H-indazol-1-yl)acetic acid]",,,not effective,concentration at which PPARγ was activated (human PPARγ (NR1C3)): 10 µM
"CCCc1cc(C(=O)c2ccc(-c3ccccc3)cc2)ccc1OCCCOc1ccc2c(cnn2CC(=O)OC)c1 [MP-153, methyl 2-(5-(3-(4-([1,1′-biphenyl]-4-carbonyl)-2-propylphenoxy)propoxy)-1H-indazol-1-yl)acetate]",5 µM,,,production of IL-6 ([3]; compound at 2.5 μM): significantly inhibited; production of IL-6 ([3]; compound at 25 μM): significantly inhibited
"CCCc1cc(C(=O)c2ccc(F)cc2)ccc1OCCCOc1ccc2c(cnn2CC(=O)O)c1 [MP-154, 2-(5-(3-(4-(4-fluorobenzoyl)-2-propylphenoxy)propoxy)-1H-indazol-1-yl)acetic acid]",1 µM,,,"PPARγ transactivation: concentration at which (or starting at which) active (human PPARγ (NR1C3); FIG. 3): 1,000 nM; production of IL-6 ([3]; compound at 2.5 μM): no anti-inflammatory effect; production of IL-6 ([3]; compound at 25 μM): significantly inhibited"
"CCCc1cc(C(=O)c2ccc(-c3ccccc3)cc2)ccc1OCCCOc1ccc2c(cnn2C(OCC)C(=O)O)c1 (stereo not drawn) [KV-180, 2-(5-(3-(4-([1.1′-biphenyl]-4-carbonyl)-2-propylphenoxy)propoxy)-1H-indazol-1-yl)-2-ethoxyacetic acid]",,highly effective,not effective,
"CCCc1cc(C(=O)c2ccc(-c3ccccc3)cc2)ccc1OCCOc1ccc2c(cnn2C(OCC)C(=O)O)c1 (stereo not drawn) [KV 196, 2-(5-(2-(4-([1,1′-biphenyl]-4-carbonyl)-2-propylphenoxy)ethoxy)-1H-indazol-1-yl)-2-ethoxyacetic acid]",,highly effective,not effective,
"CCCc1cc(C(=O)c2ccc(F)cc2)ccc1OCCCOc1ccc2c(cnn2C(OCC)C(=O)OC)c1 (stereo not drawn) [KV-157, methyl 2-ethoxy-2-(5-(3-(4-(4-fluorobenzoyl)-2 propylphenoxy)propoxy)-1H-indazol-1-yl)acetate]",,highly effective,not effective,
"CCC(=O)O[C@]1(C(=O)CCl)[C@@H](C)C[C@H]2[C@@H]3CCC4=CC(=O)C=C[C@]4(C)[C@@]3(F)[C@@H](O)C[C@@]21C [CP, clobetasol propionate, reference compound]",,,,"reducing the PASI score ([1]; 0.05% w/w cream, once daily day 10 to day 16, FIG. 11): effective"
"CCCc1cc(C(=O)c2ccc(-c3ccccc3)cc2)ccc1OCCOc1ccc2c(cnn2C(OCC)C(=O)OCC)c1 (stereo not drawn) [KV-194A, Ethyl 2-(5-(2-(4-([1,1,′-biphenyl]-4-carbonyl)-2-propylphenoxy)ethoxy)-1H-indazol-1-yl)-2-ethoxyacetate]",,highly effective,not effective,
"CCCc1cc(C(=O)c2ccc(-c3ccccc3)cc2)ccc1OCCCOc1ccc2c(cnn2C(OCC)C(=O)OCC)c1 (stereo not drawn) [KV-165, ethyl 2-(5-(3-(4-([1,1′-biphenyl]-4-carbonyl)-2-propylphenoxy)propoxy)-1H-indazol-1-yl)-2-ethoxyacetate]",,highly effective,not effective,
